Patent US7566718B2, “Amine-linked pyridyl and phenyl substituted piperazine-piperidines with CXCR3 antagonist activity” (Schering Corporation, priority 2005, dated 2009)

Molecular target: T1, human CXCR3 (N-delta 4) (Homo sapiens, UniProt P49682)
T1 construct: CD8 leader (N); Flag tag; expressed in transfected cells; membrane preparation
T1 sequence (P49682 5-368 limits assumed): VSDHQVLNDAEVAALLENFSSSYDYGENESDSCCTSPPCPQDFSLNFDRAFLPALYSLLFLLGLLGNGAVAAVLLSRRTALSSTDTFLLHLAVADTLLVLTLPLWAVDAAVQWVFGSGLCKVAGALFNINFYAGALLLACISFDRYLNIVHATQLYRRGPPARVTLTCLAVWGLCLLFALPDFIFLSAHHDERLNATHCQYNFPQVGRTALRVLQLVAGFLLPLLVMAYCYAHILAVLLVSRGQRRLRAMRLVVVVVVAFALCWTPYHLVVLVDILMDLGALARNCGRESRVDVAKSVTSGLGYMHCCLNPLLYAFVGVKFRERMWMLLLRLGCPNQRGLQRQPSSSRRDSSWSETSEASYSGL
Assay: Human CXCR3 (N-delta 4) scintillation proximity assay (SPA), [125I] IP-10 binding to Ba/F3-hCXCR3 membranes
Conditions: IC50 rating; [125I] IP-10 displacement, human CXCR3; read-out: IC50
In short: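 Membranes from Ba/F3 cells expressing Flag-tagged hCXCR3 (N-delta 4), 2 μg/point, precoupled to WGA SPA beads. Binding of 25 pM [125I] IP-10 measured with titrated compounds, 3 hr at room temperature, in HEPES buffer with CaCl2, MgCl2, NaCl and 1.0% BSA; bound tracer read by scintillation counting.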

IC50 [nM]	SMILES
25 to 100	CC[C@H]1CN(c2ncc(NS(C)(=O)=O)cc2Cl)CCN1C1CCN(Cc2ccc(Cl)cc2[N+](=O)[O-])CC1 [Compound 28]
25 to 100	CC[C@H]1CN(c2ncc(NCCCC(F)(F)F)cc2Cl)CCN1C1CCN(Cc2ccc(Cl)cc2)CC1 [Compound 204]
25 to 100	CC[C@H]1CN(c2ncc(N/C(N)=N/C#N)cc2Cl)CCN1C1CCN(Cc2ccc(Cl)cc2F)CC1 [Compound 208]
> 100	C[C@@H]1CN(c2ncc(Nc3c(NCC(F)(F)F)c(=O)c3=O)cc2Cl)[C@@H](C)CN1C1CCN(Cc2ccccc2Cl)CC1 [Compound 155]
25 to 100	CCC(=O)Nc1cnc(N2CCN(C3CCN(Cc4ccc(Cl)cc4)CC3)[C@@H](C)C2)c(Cl)c1 [Compound 187]
< 25	CC[C@H]1CN(c2ncc(NS(N)(=O)=O)cc2Cl)CCN1C1CCN([C@H](C(=O)OC)c2ccc(Cl)cc2)CC1 [Compound 16]
> 100	CC[C@H]1CN(c2ncc(-n3ccnc3)cc2Cl)CCN1C1CCN([C@H](C(=O)OC)c2ccc(Cl)cc2)CC1 [Compound 229]
> 100	CC[C@H]1CN(c2ncc(N(S(C)(=O)=O)S(C)(=O)=O)cc2Cl)CCN1C1CCN(Cc2ccc(Cl)cc2F)CC1 [Compound 61]
25 to 100	CC[C@H]1CN(c2ncc(NS(C)(=O)=O)cc2Cl)CCN1C1CCN(Cc2ccc(Cl)cc2C(=O)OC)CC1 [Compound 30]
< 25	CC[C@H]1CN(c2ncc(NS(=O)(=O)C3CC3)cc2Cl)CCN1C1CCN(Cc2ccc(Cl)cc2F)CC1 [Compound 22]
< 25	CC[C@H]1CN(c2ncc(NC3=NS(=O)(=O)N=C3NC3CC3)cc2Cl)CCN1C1CCN(Cc2ccc(OC(F)(F)F)cc2)CC1 [Compound 234]
25 to 100	CC[C@H]1CN(c2ncc(NS(C)(=O)=O)cc2Cl)CCN1C1CCN(C(C(=O)OC)c2ccc(Cl)cc2)CC1 (stereo partly shown) [Compound 27]
> 100	CC[C@H]1CN(c2nc(N)c(N)nc2Cl)CCN1C1CCN(Cc2ccc(Cl)cc2F)CC1 [Compound 219]
> 100	CC[C@H]1CN(c2ncc(NC3=NS(=O)(=O)N=C3NCC(=O)O)cc2Cl)CCN1C1CCN(Cc2ccc(Cl)cc2F)CC1 [Compound 280]
> 100	CC[C@H]1CN(c2cc(N)c([N+](=O)[O-])cc2Cl)CCN1C1CCN(Cc2ccc(Cl)cc2F)CC1 [Compound 220]
25 to 100	CC[C@H]1CN(c2ncc(Nc3c(NCC(N)=O)c(=O)c3=O)cc2Cl)CCN1C1CCN([C@H](CO)c2ccc(Cl)cc2)CC1 [Compound 103]
25 to 100	CC[C@H]1CN(c2ncc(-n3cccn3)cc2Cl)CCN1C1CCN(Cc2ccc(OC(F)(F)F)cc2)CC1 [Compound 210]

IC50 [nM]	SMILES
25 to 100	CC[C@H]1CN(c2ncc(Nc3c(NCC(=O)OC(C)(C)C)c(=O)c3=O)cc2Cl)CCN1C1CCN([C@H](CO)c2ccc(Cl)cc2)CC1 [Compound 110]
25 to 100	CC[C@H]1CN(c2ncc(N/C(=N/C#N)NC3CC3)cc2Cl)CCN1C1CCN(Cc2ccc(Cl)cc2F)CC1 [Compound 209]
< 25	C[C@@H]1CN(C2CCN(Cc3ccc(Cl)cc3F)CC2)[C@@H](C)CN1c1ncc(Nc2c(N)c(=O)c2=O)cc1Cl [Compound 100]
< 25	CCNC(=O)Nc1cnc(N2CCN(C3CCN(Cc4ccc(Cl)cc4F)CC3)[C@@H](CC)C2)c(Cl)c1 [Compound 183]
< 25	CC[C@H]1CN(c2ncc(NC3=NS(=O)(=O)N=C3NCCO)cc2Cl)CCN1C1CCN(Cc2ccc(Cl)cc2F)CC1 [Compound 238]
< 25	CC[C@H]1CN(c2ncc(Nc3c(C(C)C)c(=O)c3=O)cc2Cl)CCN1C1CCN(Cc2ccc(Cl)cc2F)CC1 [Compound 84]
> 100	C[C@@H]1CN(c2ncc(Nc3c(NCC(F)(F)F)c(=O)c3=O)cc2Cl)[C@@H](C)CN1C1CCN(CCCc2ccccc2)CC1 [Compound 116]
> 100	C[C@@H]1CN(c2ncc(Nc3c(NCC(F)(F)F)c(=O)c3=O)cc2Cl)[C@@H](C)CN1C1CCN(Cc2ccc(Cl)cc2Cl)CC1 [Compound 134]
25 to 100	CC[C@H]1CN(c2ncc(NC3=NS(=O)(=O)N=C3NC[C@@H](C)O)cc2Cl)CCN1C1CCN(Cc2ccc(Cl)cc2F)CC1 [Compound 258]
25 to 100	CC[C@H]1CN(c2ncc(NC3=NS(=O)(=O)N=C3NC)cc2Cl)CCN1C1CCN(Cc2ccc(Cl)cc2C#N)CC1 [Compound 263]
< 25	CC[C@H]1CN(c2ncc(-n3cn[nH]c3=O)cc2Cl)CCN1C1CCN(Cc2ccc(Cl)cc2F)CC1 [Compound 179]
25 to 100	C[C@H]1CN(c2ncc(NS(C)(=O)=O)cc2Cl)CCN1C1CCN(Cc2ccc(OC(F)(F)F)cc2)CC1 [Compound 38]
> 100	CSc1ccc(CN2CCC(N3C[C@H](C)N(c4ncc(Nc5c(NCC(F)(F)F)c(=O)c5=O)cc4Cl)C[C@H]3C)CC2)cc1 [Compound 121]
< 25	CCCCNC1=NS(=O)(=O)N=C1Nc1cnc(N2CCN(C3CCN(Cc4ccc(Cl)cc4C(=N)NO)CC3)[C@@H](CC)C2)c(Cl)c1 [Compound 241]
> 100	CC(C)C1CCC(N2CCC(N3C[C@H](C)N(c4ncc(Nc5c(NCC(F)(F)F)c(=O)c5=O)cc4Cl)C[C@H]3C)CC2)CC1 (stereo partly shown) [Compound 127]
> 100	CC[C@H]1CN(c2ncc(NS(C)(=O)=O)cc2Cl)CCN1C1CCN(Cc2ccsc2)CC1 [Compound 60]
> 100	COC1CCCC(CN2CCC(N3C[C@H](C)N(c4ncc(Nc5c(NCC(F)(F)F)c(=O)c5=O)cc4Cl)C[C@H]3C)CC2)O1 (stereo partly shown) [Compound 151]
